These results are taken from patent US12504423B2, “Human in vitro cardiotoxicity model” (Brown University, priority 2020, dated 2025).

Like-named read-outs stand apart in the source and are kept apart here.

The target of one series is peak ICa (Homo sapiens, UniProt Q13936). To be noted: cited from earlier work.
Series [1] can be described thus: Ranolazine steady-state Cmax in blood serum (FDA documentation). The class given is in vivo. To be noted: human, 1000 mg, 1000 mg b.i.d., bracketed conversion.
Another series concerns the target INCX (Homo sapiens, UniProt P32418). To be noted: cited from earlier work.
For series [2], the system named is hiPSC-CM microtissues. Kind of series: Cardiac TEEM: optical mapping of action potentials in 3D human cardiac microtissues. Here is the method: Optical mapping and automated action potential duration analysis. The inventors used an Olympus MVX10 microscope to image 1.2×1.2-mm^2 regions. Microtissues were loaded with voltage-sensitive di-4-ANEPPS (5 μM for ten minutes at 35° C.) for measurements of membrane potential (Vm). […] Fluorescence images were filtered using nonlinear bilateral filter (spatial filter: 5×5 window, temporal filter: 21-point window) to preserve action potential upstrokes from blurring. Typically, four microtissues were recorded simultaneously/scan at this magnification. A single microtissue is typically covered by ˜60 pixels at this magnification. The pixels with action potentials were identified from Fast Fourier transformation (FFT) of fluorescence signals. After appropriate thresholding and image segmentation, the region of each microtissue was grouped and the fluorescence signals from the pixels in the same microtissue were average and used for action potential analysis.
Optical mapping and automated action potential analysis (alternative). Microtissues were loaded with voltage-sensitive di-4-ANEPPS (5 μM for 10 min at 35° C.) for measurements of membrane potential (Vm). […] Typically, four microtissues were recorded simultaneously per scan at this magnification. A step-by-step illustration of automated data analysis is available in FIGS. 4A-G. Briefly, the pixels with APs were identified from Fast Fourier transformation (FFT) of fluorescence signals. After appropriate thresholding and image segmentation, the region of each microtissue was grouped and the fluorescence signals from the pixels in the same microtissue were average and used for action potential analysis.
Validation and screening of toxicants for arrhythmogenic risk. […] Concentrations are selected to span human exposure levels or blood serum levels and quantify dose-dependent changes over a wide range (with a goal of more than 10,000× change in concentration and at least 4-6 doses). A single mold of microtissues is imaged for approximately 1 hour to assure quality recordings without signal degradation due to tissue degeneration, enabling measurement under control conditions (zero compound) and 3 doses.
Validation and screening of toxicants for arrhythmogenic risk (alternative). […] Microtissues were stimulated with a platinum field stimulation electrode. Myopacer EP field stimulator, IonOptix, Milton, MA, USA). […] BPA was dissolved in 10% ethanol stock solution and diluted in Tyrode solution to the final concentration. Microtissues were exposed to vehicle (DMSO or ethanol) and the indicated concentrations of test compounds for 20 min, and action potentials were measured as described above.
The Cardiac Tissue-Engineered Model (TEEM) uses human cardiomyocytes derived from human pluripotent stem cells, which express all the human proteins, ion channels and currents necessary for assessing a human-specific arrhythmic and cardiotoxic response, including the seven critical ion channels identified by the FDA's CiPA initiative. […] The intensity of the signal gives a reading of voltage (in the millivolt range) overtime, which is the action potential trace. A similar dye that fluoresces in response to the intracellular calcium (Ca^2+) concentration gives a calcium transient (CaT) for each activation of each cardiac microtissue. See above.

Another series deals with late ICa (Homo sapiens, UniProt Q13936). To be noted: cited from earlier work.
The conditions of series [3]: 1000 mg b.i.d.; blood serum; cited from earlier work.
Series [4] concerns late sodium current (INa,late). To be noted: read-out: IC50, late sodium current (INa,late) block; cited from earlier work.
Another series has as its system rats. To be noted: rodents; greater sensitivity in female rats than male rats; cited from earlier work.
The target in another series is sodium channel Nav1.5 (Homo sapiens, UniProt Q14524). To be noted: read-out: IC50, block of sodium channel Nav1.5; cited from earlier work.
Series [5] has as its system hiPSC-CM microtissues. Kind of series: Calcium transient (CaT) recording of spontaneous activity in hiPSC-CM microtissues. The class given is cell-based, human. To be noted: 100 nM. Here is the method: FIGS. 1A-C are a set of graphs showing the stimulation protocol and CaT metrics. […] CaTs were recorded using Rhod-2/AM. […] Activation Interval (AI), the time between two CaTs, will be measured before and after drug perfusion to detect altered spontaneous activity. CaTs recorded with the genetically encoded optogenetic probe GCaMP.
The inventors also developed a platform suitable for cardiotoxicity testing that can detect alteration in Cai release and removal processes from hiPSC-CM microtissues by measuring detailed kinetic parameters of Cai dynamics during a proposed stimulation protocol as shown in FIGS. 1A-C.

The IC50 is the concentration needed to halve the response being measured. One may read the Cmax as the highest concentration seen after dosing.

Sequence of late ICa (Q13936 whole entry): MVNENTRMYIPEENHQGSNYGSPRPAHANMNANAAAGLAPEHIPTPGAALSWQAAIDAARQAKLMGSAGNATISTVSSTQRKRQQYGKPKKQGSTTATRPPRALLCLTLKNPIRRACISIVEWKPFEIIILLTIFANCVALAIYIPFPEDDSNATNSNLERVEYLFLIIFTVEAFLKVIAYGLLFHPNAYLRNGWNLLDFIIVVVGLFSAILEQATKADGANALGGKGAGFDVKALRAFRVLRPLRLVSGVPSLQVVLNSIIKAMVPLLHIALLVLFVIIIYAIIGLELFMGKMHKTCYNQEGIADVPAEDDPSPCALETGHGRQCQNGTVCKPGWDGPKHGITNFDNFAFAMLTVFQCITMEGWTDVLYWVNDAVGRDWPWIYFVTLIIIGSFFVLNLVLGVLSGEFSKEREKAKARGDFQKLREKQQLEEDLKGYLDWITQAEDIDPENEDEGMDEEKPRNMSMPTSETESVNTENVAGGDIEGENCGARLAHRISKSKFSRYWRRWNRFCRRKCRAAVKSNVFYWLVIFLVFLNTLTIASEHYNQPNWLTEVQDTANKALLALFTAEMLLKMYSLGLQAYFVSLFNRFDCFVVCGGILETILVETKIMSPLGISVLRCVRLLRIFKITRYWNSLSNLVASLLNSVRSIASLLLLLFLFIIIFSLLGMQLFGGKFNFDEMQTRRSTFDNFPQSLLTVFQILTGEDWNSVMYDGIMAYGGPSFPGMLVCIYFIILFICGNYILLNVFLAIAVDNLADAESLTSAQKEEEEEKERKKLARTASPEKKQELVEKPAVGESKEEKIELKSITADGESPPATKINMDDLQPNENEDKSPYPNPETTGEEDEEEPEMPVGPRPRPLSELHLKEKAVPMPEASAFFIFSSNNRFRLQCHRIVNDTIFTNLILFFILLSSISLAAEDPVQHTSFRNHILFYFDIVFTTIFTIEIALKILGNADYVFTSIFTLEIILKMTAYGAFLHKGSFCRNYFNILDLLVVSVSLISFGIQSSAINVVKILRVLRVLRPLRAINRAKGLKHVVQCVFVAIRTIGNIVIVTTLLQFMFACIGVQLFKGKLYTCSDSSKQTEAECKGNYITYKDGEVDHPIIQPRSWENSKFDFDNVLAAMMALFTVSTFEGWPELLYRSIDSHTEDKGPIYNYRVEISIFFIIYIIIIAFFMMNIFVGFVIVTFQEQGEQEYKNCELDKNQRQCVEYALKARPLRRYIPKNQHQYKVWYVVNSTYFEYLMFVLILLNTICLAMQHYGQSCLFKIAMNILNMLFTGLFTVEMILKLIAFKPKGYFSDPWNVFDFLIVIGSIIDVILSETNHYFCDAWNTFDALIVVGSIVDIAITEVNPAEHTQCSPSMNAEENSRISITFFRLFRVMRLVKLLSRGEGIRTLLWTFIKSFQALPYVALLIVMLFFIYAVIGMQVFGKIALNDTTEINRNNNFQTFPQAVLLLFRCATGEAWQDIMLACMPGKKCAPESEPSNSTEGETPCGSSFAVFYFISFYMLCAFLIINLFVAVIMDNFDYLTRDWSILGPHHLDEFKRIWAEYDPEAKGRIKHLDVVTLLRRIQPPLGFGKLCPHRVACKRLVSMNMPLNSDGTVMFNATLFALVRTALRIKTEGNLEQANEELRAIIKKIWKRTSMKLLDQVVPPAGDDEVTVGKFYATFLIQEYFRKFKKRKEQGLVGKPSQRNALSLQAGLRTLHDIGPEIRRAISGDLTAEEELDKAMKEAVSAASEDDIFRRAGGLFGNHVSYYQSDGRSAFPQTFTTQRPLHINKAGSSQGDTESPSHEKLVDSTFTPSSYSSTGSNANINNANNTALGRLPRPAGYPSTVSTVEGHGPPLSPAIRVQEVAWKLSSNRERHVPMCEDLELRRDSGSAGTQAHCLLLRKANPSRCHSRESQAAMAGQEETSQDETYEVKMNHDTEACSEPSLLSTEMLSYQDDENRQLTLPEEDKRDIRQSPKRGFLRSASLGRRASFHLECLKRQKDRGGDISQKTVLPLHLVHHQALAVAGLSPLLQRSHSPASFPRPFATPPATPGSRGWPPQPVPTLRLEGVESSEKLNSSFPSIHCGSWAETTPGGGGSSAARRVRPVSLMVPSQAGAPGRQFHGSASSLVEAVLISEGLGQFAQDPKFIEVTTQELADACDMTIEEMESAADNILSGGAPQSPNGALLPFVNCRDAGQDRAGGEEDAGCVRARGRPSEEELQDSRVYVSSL
Sequence of late ICa (Q08289 whole entry partner): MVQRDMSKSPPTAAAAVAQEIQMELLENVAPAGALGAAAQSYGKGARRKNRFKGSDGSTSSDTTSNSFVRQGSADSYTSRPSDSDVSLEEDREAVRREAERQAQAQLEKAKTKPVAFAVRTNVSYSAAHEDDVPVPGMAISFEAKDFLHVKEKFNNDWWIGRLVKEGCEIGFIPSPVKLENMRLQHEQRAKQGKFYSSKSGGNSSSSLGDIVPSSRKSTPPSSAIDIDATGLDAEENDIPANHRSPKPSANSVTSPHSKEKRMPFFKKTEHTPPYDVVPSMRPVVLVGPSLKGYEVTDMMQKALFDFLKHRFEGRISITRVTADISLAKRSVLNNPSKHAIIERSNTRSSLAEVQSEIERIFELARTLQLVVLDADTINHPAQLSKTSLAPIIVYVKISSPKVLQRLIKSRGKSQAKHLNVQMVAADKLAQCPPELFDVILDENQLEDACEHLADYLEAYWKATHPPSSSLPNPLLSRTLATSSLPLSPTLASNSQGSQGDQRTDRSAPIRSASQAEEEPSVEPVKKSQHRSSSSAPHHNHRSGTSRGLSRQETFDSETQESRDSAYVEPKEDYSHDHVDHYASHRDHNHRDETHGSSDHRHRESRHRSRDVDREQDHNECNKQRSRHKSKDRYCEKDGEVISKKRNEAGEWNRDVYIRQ
Sequence of late ICa (P54289 25-956 partner limits assumed): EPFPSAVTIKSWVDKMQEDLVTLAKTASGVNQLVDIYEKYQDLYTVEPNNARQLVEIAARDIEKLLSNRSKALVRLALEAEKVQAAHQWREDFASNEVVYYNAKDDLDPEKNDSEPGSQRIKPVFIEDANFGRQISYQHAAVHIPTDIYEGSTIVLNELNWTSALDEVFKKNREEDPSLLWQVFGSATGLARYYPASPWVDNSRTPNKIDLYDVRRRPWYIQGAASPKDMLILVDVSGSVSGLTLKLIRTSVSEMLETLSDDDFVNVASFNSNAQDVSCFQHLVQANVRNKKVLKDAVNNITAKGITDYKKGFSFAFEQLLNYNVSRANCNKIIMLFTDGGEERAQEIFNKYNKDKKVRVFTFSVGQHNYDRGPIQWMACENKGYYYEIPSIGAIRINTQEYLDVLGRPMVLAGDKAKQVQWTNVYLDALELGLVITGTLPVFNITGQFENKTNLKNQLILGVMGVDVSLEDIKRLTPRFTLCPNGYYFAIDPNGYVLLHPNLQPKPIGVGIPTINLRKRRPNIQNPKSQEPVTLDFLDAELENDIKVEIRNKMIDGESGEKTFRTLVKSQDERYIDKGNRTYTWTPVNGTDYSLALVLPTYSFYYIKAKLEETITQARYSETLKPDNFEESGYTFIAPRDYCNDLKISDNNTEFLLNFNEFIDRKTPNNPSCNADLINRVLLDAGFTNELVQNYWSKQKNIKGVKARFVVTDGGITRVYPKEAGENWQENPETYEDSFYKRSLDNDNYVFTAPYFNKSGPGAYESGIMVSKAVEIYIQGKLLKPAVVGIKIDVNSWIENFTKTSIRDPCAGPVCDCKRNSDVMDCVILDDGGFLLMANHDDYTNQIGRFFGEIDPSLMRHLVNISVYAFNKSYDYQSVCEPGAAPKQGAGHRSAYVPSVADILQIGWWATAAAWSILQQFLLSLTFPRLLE
Sequence of late ICa (P54289 957-1103 partner limits assumed): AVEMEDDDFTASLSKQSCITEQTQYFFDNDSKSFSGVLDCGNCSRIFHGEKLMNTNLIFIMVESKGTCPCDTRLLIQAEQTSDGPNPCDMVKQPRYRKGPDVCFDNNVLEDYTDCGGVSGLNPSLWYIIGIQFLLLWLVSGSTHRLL
Sequence of peak ICa (Q13936 whole entry): as the sequence (Q13936 whole entry) above
Sequence of peak ICa (Q08289 whole entry partner): as the sequence (Q08289 whole entry partner) above
Sequence of peak ICa (P54289 25-956 partner limits assumed): as the sequence (P54289 25-956 partner limits assumed) above
Sequence of peak ICa (P54289 957-1103 partner limits assumed): as the sequence (P54289 957-1103 partner limits assumed) above

On to `COc1ccccc1OCC(O)CN1CCN(CC(=O)Nc2c(C)cccc2C)CC1` (stereo not shown) [Ranolazine, ranolazine], for which the IC50 was 296 µM at peak ICa, 91 µM at INCX, 50 µM on late ICa and 5.9 µM in series [4]. In addition, the Cmax in series [1] (read-out: 95% of Cmax values) was 0.98 to 14.2 µM; in [1] (read-out: mean steady-state Cmax) it was 6 µM. The “Dose-dependent mean difference of APD30” value in the series with hiPSC-CM microtissues [2] (human, 20 min, 2 μM) came out at 4.692; in the series with hiPSC-CM microtissues [2] (human, 20 min, 10 μM), 20.71; in the series with hiPSC-CM microtissues [2] (human, 20 min, 100 μM), 57.9565. Moreover, the “Dose-dependent mean difference of APD60” value in the series with hiPSC-CM microtissues [2] (human, 20 min, 2 μM) is −2.806; in the series with hiPSC-CM microtissues [2] (human, 20 min, 10 μM), 20.5335; with hiPSC-CM microtissues [2] (human, 20 min, 100 μM), 108.574. The “Dose-dependent mean difference of APD80” value in the series on hiPSC-CM microtissues [2] (human, 20 min, 2 μM) was determined as 4.629; in the series with hiPSC-CM microtissues [2] (human, 20 min, 10 μM), 79.1112; in the series on hiPSC-CM microtissues [2] (human, 20 min, 100 μM) it was 242.133. The “Dose-dependent mean difference of APDM×R” value was −9.87 in the series on hiPSC-CM microtissues [2] (human, 20 min, 2 μM); 13.1316 in the series with hiPSC-CM microtissues [2] (human, 20 min, 10 μM); 353.211 in the series with hiPSC-CM microtissues [2] (human, 20 min, 100 μM). Also, the “Dose-dependent mean difference of APDtri” value was −7.031 in the series with hiPSC-CM microtissues [2] (human, 20 min, 2 μM); −7.337 with hiPSC-CM microtissues [2] (human, 20 min, 10 μM); 244.733 with hiPSC-CM microtissues [2] (human, 20 min, 100 μM). Further, the “Dose-dependent mean difference of Rise Time” value in the series on hiPSC-CM microtissues [2] (human, 20 min, 2 μM) is reported as 0.1436; in the series with hiPSC-CM microtissues [2] (human, 20 min, 10 μM) it was 1.025; with hiPSC-CM microtissues [2] (human, 20 min, 100 μM), 12.5916. In addition, the “mean steady-state Cmax” value in series [3] is reported as 2569 ng/mL.
For the compound `CC(C)(c1ccc(O)cc1)c1ccc(O)cc1` [BPA, bisphenol-A], the concentration promoting arrhythmias in the series with rats was 0.001 µM. For the same compound, in the series with hiPSC-CM microtissues [2], the “action potential duration measurements” value was “shifts action potential duration measurements”, the “action potential rise time” value is on record as “slowed action potential rise time” and the stimulation delay entry is on record as “increased stimulation delay”. Moreover, the “APD30 and APD50 relative to APD80” value in the series with hiPSC-CM microtissues [2] (female, human, 20 min) is “APD30 and APD50 were shortened more than APD80”. Moreover, in the series on hiPSC-CM microtissues [2] (human, 20 min, 1 nM), the “Dose-dependent mean difference of APD30” value stood at 34.5043, the “Dose-dependent mean difference of APD60” value stood at 37.3566, the “Dose-dependent mean difference of APD80” value came out at 42.7763 and the “Dose-dependent mean difference of APDM×R” value worked out at 34.0012. Also, in the series on hiPSC-CM microtissues [2] (human, 20 min, 1 nM), the “Dose-dependent mean difference of APDtri” value was −3.327 and the “Dose-dependent mean difference of Rise Time” value worked out at 1.176. For the same compound, in the series on hiPSC-CM microtissues [2] (human, 20 min, 10 nM), the “Dose-dependent mean difference of APD30” value is reported as −15.3826, the “Dose-dependent mean difference of APD60” value is listed as −14.0569, the “Dose-dependent mean difference of APD80” value was determined as 11.1129 and the “Dose-dependent mean difference of APDM×R” value is listed as −14.786. Moreover, in the series on hiPSC-CM microtissues [2] (human, 20 min, 10 nM), the “Dose-dependent mean difference of APDtri” value was −0.672 and the “Dose-dependent mean difference of Rise Time” value is on record as −0.3497. Further, in the series with hiPSC-CM microtissues [2] (human, 20 min, 100 nM), the “Dose-dependent mean difference of APD30” value is given as −17.808, the “Dose-dependent mean difference of APD60” value is given as −16.8623, the “Dose-dependent mean difference of APD80” value is listed as 10.0440 and the “Dose-dependent mean difference of APDM×R” value is −23.7763. In the series with hiPSC-CM microtissues [2] (human, 20 min, 100 nM), the “Dose-dependent mean difference of APDtri” value was −6.828 and the “Dose-dependent mean difference of Rise Time” value is given as −1.734. In addition, in the series on hiPSC-CM microtissues [2] (human, 20 min, 1000 nM), the “Dose-dependent mean difference of APD30” value is listed as −28.3006, the “Dose-dependent mean difference of APD60” value is on record as −31.0489, the “Dose-dependent mean difference of APD80” value was −4.641 and the “Dose-dependent mean difference of APDM×R” value is listed as −40.7783. Also, in the series with hiPSC-CM microtissues [2] (human, 20 min, 1000 nM), the “Dose-dependent mean difference of APDtri” value was −9.615 and the “Dose-dependent mean difference of Rise Time” value is on record as −2.203. Besides, on sodium channel Nav1.5, the IC50 was 25 µM.
Regarding `Nc1ccncc1` [4-AP], the “effect on APDtri” value in the series with hiPSC-CM microtissues [2] is given as “no effect on APDtri”. In addition, the APD result with hiPSC-CM microtissues [2] (0.5 mM) was “APD prolongation”. Also, in the series on hiPSC-CM microtissues [2] (0.5 mM, p=0.199), the “slope of APDtri versus APDMxR” value is reported as “did not steepen”.
`COC(=O)C1=C(C)NC(C)=C([N+](=O)[O-])C1c1ccccc1C(F)(F)F` (stereo not shown) [BayK8644]: in the series on hiPSC-CM microtissues [2], the “effect on APDtri” value is recorded as “no effect on APDtri”.
Consider `CC(C)NCC(O)c1ccc(O)c(O)c1` (stereo not shown) [Isoproterenol, isoproterenol], for which the “spontaneous activity (CaTs, GCaMP)” value in the series with hiPSC-CM microtissues [5] is “spontaneous activity increased”. Further, the “average reduction of APD80” value in the series on hiPSC-CM microtissues [2] (human, 20 min, 100 nM) is recorded as 45 milliseconds.
